What all share (assay type): cell-based
One experiment concerns the target T1, hY2R (Homo sapiens, UniProt P49146).
T1 sequence (P49146 1-381): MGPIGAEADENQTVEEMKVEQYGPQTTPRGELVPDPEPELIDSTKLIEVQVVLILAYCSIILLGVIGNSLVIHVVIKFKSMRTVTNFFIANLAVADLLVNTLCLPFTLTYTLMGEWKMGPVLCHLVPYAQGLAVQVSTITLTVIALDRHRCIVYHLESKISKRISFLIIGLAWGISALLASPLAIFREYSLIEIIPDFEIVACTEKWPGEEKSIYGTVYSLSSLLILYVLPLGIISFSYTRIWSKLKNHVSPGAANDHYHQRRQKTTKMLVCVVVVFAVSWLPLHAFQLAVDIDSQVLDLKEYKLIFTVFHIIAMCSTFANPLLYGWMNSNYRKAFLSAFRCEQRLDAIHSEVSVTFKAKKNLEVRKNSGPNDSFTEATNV
Nature of the experiment: Inositol phosphate accumulation assay, hY2R. To be noted: for Emax: read-out: hY2R Emax.

The target of the next experiment is hY4R (Homo sapiens, UniProt P50391). Nature of the experiment: Inositol phosphate accumulation assay, hY4R. Particulars: for Emax: read-out: hY4R Emax.
Sequence of hY4R (P50391 whole entry): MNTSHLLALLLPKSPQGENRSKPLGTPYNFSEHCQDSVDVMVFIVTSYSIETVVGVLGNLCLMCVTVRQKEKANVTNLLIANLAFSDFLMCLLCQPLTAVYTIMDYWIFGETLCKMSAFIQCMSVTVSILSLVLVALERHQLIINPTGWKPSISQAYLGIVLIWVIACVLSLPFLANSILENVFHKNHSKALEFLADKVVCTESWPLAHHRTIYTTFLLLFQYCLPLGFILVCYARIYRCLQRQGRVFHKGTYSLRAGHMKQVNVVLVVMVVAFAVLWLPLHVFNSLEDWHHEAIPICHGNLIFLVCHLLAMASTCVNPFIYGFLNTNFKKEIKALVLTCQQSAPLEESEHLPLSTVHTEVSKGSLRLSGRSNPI
The target of another experiment is T2, hY1R (Homo sapiens, UniProt P25929).
T2 sequence (P25929 1-384): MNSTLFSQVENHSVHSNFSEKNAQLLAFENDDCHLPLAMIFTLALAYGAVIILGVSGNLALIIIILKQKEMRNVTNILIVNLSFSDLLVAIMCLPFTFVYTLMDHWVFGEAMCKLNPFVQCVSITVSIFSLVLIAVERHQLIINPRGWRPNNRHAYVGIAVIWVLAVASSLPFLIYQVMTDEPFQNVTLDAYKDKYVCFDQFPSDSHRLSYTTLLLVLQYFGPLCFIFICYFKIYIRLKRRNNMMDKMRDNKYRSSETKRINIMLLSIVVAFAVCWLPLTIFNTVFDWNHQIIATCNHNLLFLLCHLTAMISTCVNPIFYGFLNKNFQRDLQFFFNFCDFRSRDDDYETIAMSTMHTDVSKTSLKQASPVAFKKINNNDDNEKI
The experiment in a line: Inositol phosphate accumulation assay, hY1R. To be noted: for Emax: read-out: hY1R Emax.

In the next experiment the target is T3, hY5R (Homo sapiens, UniProt Q15761).
T3 sequence (Q15761 1-445): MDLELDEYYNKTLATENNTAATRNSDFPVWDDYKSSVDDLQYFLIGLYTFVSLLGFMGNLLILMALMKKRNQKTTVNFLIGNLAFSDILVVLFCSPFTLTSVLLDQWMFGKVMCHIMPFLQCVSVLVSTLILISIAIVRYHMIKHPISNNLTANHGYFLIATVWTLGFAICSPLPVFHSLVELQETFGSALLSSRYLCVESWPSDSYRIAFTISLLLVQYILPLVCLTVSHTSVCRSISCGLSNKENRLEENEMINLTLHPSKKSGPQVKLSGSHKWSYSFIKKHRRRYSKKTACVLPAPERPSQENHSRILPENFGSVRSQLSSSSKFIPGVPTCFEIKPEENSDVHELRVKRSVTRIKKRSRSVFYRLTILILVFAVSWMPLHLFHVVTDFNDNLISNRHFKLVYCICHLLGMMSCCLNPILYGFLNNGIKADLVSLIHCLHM
The experiment in a line: Inositol phosphate accumulation assay, hY5R. To be noted: for Emax: read-out: hY5R Emax.

This is an account of results in paper PMC5518309 (ChemMedChem, 2014).

Numbered stars: 1 amine (or outer) side, 2 acyl side, 3 side chain; on linkers, the order of the positions; unused ones are H or OH. Side chains are listed from the residue outwards. Peptide text beside a SMILES is read from it. * marks the point of attachment. Arachidoyl = CCCCCCCCCCCCCCCCCCCC(=O)*; γGlu = O=C(O)[C@H](CCC(=O)[*:2])N[*:1]; Palmitoyl = CCCCCCCCCCCCCCCC(=O)*; Lauroyl = CCCCCCCCCCCC(=O)*; Octanoyl = CCCCCCCC(=O)*

In general, EC50 refers to the midpoint of the concentration-response curve. Lower therefore signals a more potent agent. Broadly, the Emax is the size of the effect at its maximum, as opposed to the concentration needed. Regarding `CCCCCCCC(=O)N[C@@H](CCC(=O)NCCCC[C@H](NC(=O)[C@H](C)NC(=O)[C@H](Cc1ccc(O)cc1)NC(=O)[C@H](CCC(N)=O)NC(=O)[C@H](C)NC(=O)[C@H](CCSC)NC(=O)[C@H](CCC(N)=O)NC(=O)[C@H](CCC(=O)O)NC(=O)[C@@H]1CCCN1C(=O)[C@@H](NC(=O)[C@H](C)NC(=O)[C@H](CC(N)=O)NC(=O)[C@H](CC(=O)O)NC(=O)CNC(=O)[C@@H]1CCCN1C(=O)[C@H](Cc1ccc(O)cc1)NC(=O)[C@@H](NC(=O)[C@@H]1CCCN1C(=O)[C@H](CCC(=O)O)NC(=O)[C@H](CC(C)C)NC(=O)[C@@H]1CCCN1)C(C)C)[C@@H](C)O)C(=O)N[C@@H](CC(=O)O)C(=O)N[C@@H](CC(C)C)C(=O)N[C@@H](CCCNC(=N)N)C(=O)N[C@@H](CCCNC(=N)N)C(=O)N[C@@H](Cc1ccc(O)cc1)C(=O)N[C@H](C(=O)N[C@@H](CC(N)=O)C(=O)N[C@@H](CCSC)C(=O)N[C@@H](CC(C)C)C(=O)N[C@H](C(=O)N[C@@H](CCCNC(=N)N)C(=O)N1CCC[C@H]1C(=O)N[C@@H](CCCNC(=N)N)C(=O)N[C@@H](Cc1ccc(O)cc1)C(N)=O)[C@@H](C)O)[C@@H](C)CC)C(=O)O` [compound 10, [K^22(E-Capr)]hPP2–36] (H-PLEPVYPGDNATPEQMAQYAK([γGlu-Octanoyl])DLRRYINMLTRPRY-NH2), the EC50 on hY2R is over 1000 nM; at hY4R, 3.1 nM; on hY1R, over 1000 nM; on hY5R, 26 nM. Moreover, the Emax at hY2R is 88 ± 7%; at hY4R, 91 ± 4%; on hY1R, 84 ± 4%; at hY5R, 84 ± 4%.

For `CCCCCCCCCCCC(=O)N[C@@H](CCC(=O)NCCCC[C@H](NC(=O)[C@H](C)NC(=O)[C@H](Cc1ccc(O)cc1)NC(=O)[C@H](CCC(N)=O)NC(=O)[C@H](C)NC(=O)[C@H](CCSC)NC(=O)[C@H](CCC(N)=O)NC(=O)[C@H](CCC(=O)O)NC(=O)[C@@H]1CCCN1C(=O)[C@@H](NC(=O)[C@H](C)NC(=O)[C@H](CC(N)=O)NC(=O)[C@H](CC(=O)O)NC(=O)CNC(=O)[C@@H]1CCCN1C(=O)[C@H](Cc1ccc(O)cc1)NC(=O)[C@@H](NC(=O)[C@@H]1CCCN1C(=O)[C@H](CCC(=O)O)NC(=O)[C@H](CC(C)C)NC(=O)[C@@H]1CCCN1)C(C)C)[C@@H](C)O)C(=O)N[C@@H](CC(=O)O)C(=O)N[C@@H](CC(C)C)C(=O)N[C@@H](CCCNC(=N)N)C(=O)N[C@@H](CCCNC(=N)N)C(=O)N[C@@H](Cc1ccc(O)cc1)C(=O)N[C@H](C(=O)N[C@@H](CC(N)=O)C(=O)N[C@@H](CCSC)C(=O)N[C@@H](CC(C)C)C(=O)N[C@H](C(=O)N[C@@H](CCCNC(=N)N)C(=O)N1CCC[C@H]1C(=O)N[C@@H](CCCNC(=N)N)C(=O)N[C@@H](Cc1ccc(O)cc1)C(N)=O)[C@@H](C)O)[C@@H](C)CC)C(=O)O` [compound 11, [K^22(E-Laur)]hPP2–36] (H-PLEPVYPGDNATPEQMAQYAK([γGlu-Lauroyl])DLRRYINMLTRPRY-NH2), the EC50 on hY2R was 49.6 nM; at hY4R it was 1.5 nM; at hY1R it was 204 nM; on hY5R, 14.9 nM. Moreover, the Emax came out at 101 ± 7% at hY2R, 86 ± 5% at hY4R, 87 ± 5% on hY1R and 87 ± 5% on hY5R.

As to `CCCCCCCCCCCCCCCC(=O)N[C@@H](CCC(=O)NCCCC[C@H](NC(=O)[C@H](C)NC(=O)[C@H](Cc1ccc(O)cc1)NC(=O)[C@H](CCC(N)=O)NC(=O)[C@H](C)NC(=O)[C@H](CCSC)NC(=O)[C@H](CCC(N)=O)NC(=O)[C@H](CCC(=O)O)NC(=O)[C@@H]1CCCN1C(=O)[C@@H](NC(=O)[C@H](C)NC(=O)[C@H](CC(N)=O)NC(=O)[C@H](CC(=O)O)NC(=O)CNC(=O)[C@@H]1CCCN1C(=O)[C@H](Cc1ccc(O)cc1)NC(=O)[C@@H](NC(=O)[C@@H]1CCCN1C(=O)[C@H](CCC(=O)O)NC(=O)[C@H](CC(C)C)NC(=O)[C@@H]1CCCN1)C(C)C)[C@@H](C)O)C(=O)N[C@@H](CC(=O)O)C(=O)N[C@@H](CC(C)C)C(=O)N[C@@H](CCCNC(=N)N)C(=O)N[C@@H](CCCNC(=N)N)C(=O)N[C@@H](Cc1ccc(O)cc1)C(=O)N[C@H](C(=O)N[C@@H](CC(N)=O)C(=O)N[C@@H](CCSC)C(=O)N[C@@H](CC(C)C)C(=O)N[C@H](C(=O)N[C@@H](CCCNC(=N)N)C(=O)N1CCC[C@H]1C(=O)N[C@@H](CCCNC(=N)N)C(=O)N[C@@H](Cc1ccc(O)cc1)C(N)=O)[C@@H](C)O)[C@@H](C)CC)C(=O)O` [compound 12, [K^22(E-Pam)]hPP2–36] (H-PLEPVYPGDNATPEQMAQYAK([γGlu-Palmitoyl])DLRRYINMLTRPRY-NH2), the EC50 amounted to 1.7 nM at hY2R, 1.5 nM on hY4R, 16.5 nM on hY1R and 1.9 nM at hY5R. For the same molecule, the Emax on hY2R was 103 ± 12%; at hY4R, 78 ± 4%; at hY1R, 93 ± 6%; on hY5R, 81 ± 6%.

With `CCCCCCCCCCCCCCCCCCCC(=O)N[C@@H](CCC(=O)NCCCC[C@H](NC(=O)[C@H](C)NC(=O)[C@H](Cc1ccc(O)cc1)NC(=O)[C@H](CCC(N)=O)NC(=O)[C@H](C)NC(=O)[C@H](CCSC)NC(=O)[C@H](CCC(N)=O)NC(=O)[C@H](CCC(=O)O)NC(=O)[C@@H]1CCCN1C(=O)[C@@H](NC(=O)[C@H](C)NC(=O)[C@H](CC(N)=O)NC(=O)[C@H](CC(=O)O)NC(=O)CNC(=O)[C@@H]1CCCN1C(=O)[C@H](Cc1ccc(O)cc1)NC(=O)[C@@H](NC(=O)[C@@H]1CCCN1C(=O)[C@H](CCC(=O)O)NC(=O)[C@H](CC(C)C)NC(=O)[C@@H]1CCCN1)C(C)C)[C@@H](C)O)C(=O)N[C@@H](CC(=O)O)C(=O)N[C@@H](CC(C)C)C(=O)N[C@@H](CCCNC(=N)N)C(=O)N[C@@H](CCCNC(=N)N)C(=O)N[C@@H](Cc1ccc(O)cc1)C(=O)N[C@H](C(=O)N[C@@H](CC(N)=O)C(=O)N[C@@H](CCSC)C(=O)N[C@@H](CC(C)C)C(=O)N[C@H](C(=O)N[C@@H](CCCNC(=N)N)C(=O)N1CCC[C@H]1C(=O)N[C@@H](CCCNC(=N)N)C(=O)N[C@@H](Cc1ccc(O)cc1)C(N)=O)[C@@H](C)O)[C@@H](C)CC)C(=O)O` [compound 13, [K^22(E-Ara)]hPP2–36] (H-PLEPVYPGDNATPEQMAQYAK([γGlu-Arachidoyl])DLRRYINMLTRPRY-NH2), the EC50 came to 0.9 nM at hY2R, 2.7 nM at hY4R, 11.3 nM at hY1R and 0.8 nM at hY5R. The Emax at hY2R was determined as 90 ± 5%; at hY4R, 93 ± 6%; on hY1R it was 101 ± 6%; at hY5R, 75 ± 6%.

As for `CCCCCCCCCCCC(=O)N[C@@H](CCC(=O)NCCCC[C@H](NC(=O)[C@H](CC(N)=O)NC(=O)[C@@H](NC(=O)[C@H](Cc1ccc(O)cc1)NC(=O)[C@H](CCCNC(=N)N)NC(=O)[C@H](CCCNC(=N)N)NC(=O)[C@H](CC(C)C)NC(=O)[C@H](CC(=O)O)NC(=O)[C@H](C)NC(=O)[C@H](C)NC(=O)[C@H](Cc1ccc(O)cc1)NC(=O)[C@H](CCC(N)=O)NC(=O)[C@H](C)NC(=O)[C@H](CCSC)NC(=O)[C@H](CCC(N)=O)NC(=O)[C@H](CCC(=O)O)NC(=O)[C@@H]1CCCN1C(=O)[C@@H](NC(=O)[C@H](C)NC(=O)[C@H](CC(N)=O)NC(=O)[C@H](CC(=O)O)NC(=O)CNC(=O)[C@@H]1CCCN1C(=O)[C@H](Cc1ccc(O)cc1)NC(=O)[C@@H](NC(=O)[C@@H]1CCCN1C(=O)[C@H](CCC(=O)O)NC(=O)[C@H](CC(C)C)NC(=O)[C@@H]1CCCN1)C(C)C)[C@@H](C)O)[C@@H](C)CC)C(=O)N[C@@H](CC(C)C)C(=O)N[C@H](C(=O)N[C@@H](CCCNC(=N)N)C(=O)N1CCC[C@H]1C(=O)N[C@@H](CCCNC(=N)N)C(=O)N[C@@H](Cc1ccc(O)cc1)C(N)=O)[C@@H](C)O)C(=O)O` [compound 17, [K^30(E-Laur)]hPP2–36] (H-PLEPVYPGDNATPEQMAQYAADLRRYINK([γGlu-Lauroyl])LTRPRY-NH2), the EC50 on hY2R is 296 nM; at hY4R, 3.6 nM; on hY1R, over 1000 nM; on hY5R it was 38.8 nM. Further, the maximal effect (Emax) turned out to be 98 ± 4% on hY2R, 83 ± 5% at hY4R, 81 ± 4% on hY1R and 81 ± 5% on hY5R.
